From US7118759B2 (priority 2001, dated 2006) come the findings set out here.

Format in all cases: cell-based, Staphylococcus aureus
In one experiment the test system is S. aureus (MN8). As to conditions: for Reduction of Toxin (%): vs methanol control.
The subject of the next experiment is S. aureus FRI-1169.
Another experiment concerns S. aureus FRI-1187.

Where two headings read alike, the source gives them in different places.

`Oc1c(Cl)cc(Cl)c(Cl)c1Cc1c(O)c(Cl)cc(Cl)c1Cl` [Hexachlorophene, hexachlorophene]: the “TSST-1 produced when compared to the control” value in the experiment with S. aureus (MN8) is “significantly less TSST-1”. Further, the “ELISA: TSST-1 ng/OD unit” value with S. aureus (MN8) (2 μg/mL test compound, 24 hours) was 330 ng/OD unit. Moreover, in the experiment on S. aureus (MN8) (2 μg/mL test compound), the “Reduction of Toxin (%)” value came out at 68%.
Turning to `Oc1cc(Cl)ccc1Oc1ccc(Cl)cc1Cl` [Triclosan, triclosan], the “TSST-1 produced when compared to the control” value with S. aureus FRI-1169 is “less TSST-1”; in the experiment on S. aureus (MN8), “significantly less TSST-1”; with S. aureus FRI-1187 it was “less TSST-1”. The figures for the “ELISA: TSST-1 ng/OD unit” value in the experiment with S. aureus FRI-1169 (0.5 μg/mL triclosan) and in the experiment with S. aureus FRI-1187 (0.5 ug/mL triclosan) were 40 ng/OD unit and 95 ng/OD unit, respectively. Further, the “Reduction of Toxin (%)” value in the experiment with S. aureus (MN8) (0.01 μg/mL test compound) is listed as 88%.
